PubChem BioAssay AID624129 (Sanford-Burnham Center for Chemical Genomics, 2012)
The source made the active and inactive calls. No rule for the calls is given here.

Key:
Experiment in all cases: potency against CXCR6 with APJ panel – cell-based, beta-arrestin, DiscoveRx, uHTS hits, dose response (AID 624129)
[1] = biological target: Beta-galactosidase (Escherichia coli) (UniProt Q8VNN2); conditions: CXCR6 beta-arrestin (DiscoveRx) antagonist cell assay, b-galactosidase
[2] = biological target: C-C chemokine receptor type 6 (Homo sapiens) (UniProt P51684); conditions: CXCR6 beta-arrestin (DiscoveRx) antagonist cell assay
[3] = biological target: C-X-C chemokine receptor type 6 (Homo sapiens) (UniProt O00574); conditions: CXCR6 beta-arrestin (DiscoveRx) antagonist cell assay; for inhibition: CXCR6, run 1, dose range 2, at 80 µM (top of the series)
[4] = biological target: Apelin receptor (Homo sapiens) (UniProt P35414); conditions: CXCR6 beta-arrestin (DiscoveRx) antagonist cell assay, APJ
[5] = dose range 1, mean IC50 across replicates
[6] = CCR6, dose range 1, mean IC50 across replicates
[7] = CXCR6, dose range 1, mean IC50 across replicates

Chain of Beta-galactosidase (Escherichia coli) (Q8VNN2 whole entry, looked up): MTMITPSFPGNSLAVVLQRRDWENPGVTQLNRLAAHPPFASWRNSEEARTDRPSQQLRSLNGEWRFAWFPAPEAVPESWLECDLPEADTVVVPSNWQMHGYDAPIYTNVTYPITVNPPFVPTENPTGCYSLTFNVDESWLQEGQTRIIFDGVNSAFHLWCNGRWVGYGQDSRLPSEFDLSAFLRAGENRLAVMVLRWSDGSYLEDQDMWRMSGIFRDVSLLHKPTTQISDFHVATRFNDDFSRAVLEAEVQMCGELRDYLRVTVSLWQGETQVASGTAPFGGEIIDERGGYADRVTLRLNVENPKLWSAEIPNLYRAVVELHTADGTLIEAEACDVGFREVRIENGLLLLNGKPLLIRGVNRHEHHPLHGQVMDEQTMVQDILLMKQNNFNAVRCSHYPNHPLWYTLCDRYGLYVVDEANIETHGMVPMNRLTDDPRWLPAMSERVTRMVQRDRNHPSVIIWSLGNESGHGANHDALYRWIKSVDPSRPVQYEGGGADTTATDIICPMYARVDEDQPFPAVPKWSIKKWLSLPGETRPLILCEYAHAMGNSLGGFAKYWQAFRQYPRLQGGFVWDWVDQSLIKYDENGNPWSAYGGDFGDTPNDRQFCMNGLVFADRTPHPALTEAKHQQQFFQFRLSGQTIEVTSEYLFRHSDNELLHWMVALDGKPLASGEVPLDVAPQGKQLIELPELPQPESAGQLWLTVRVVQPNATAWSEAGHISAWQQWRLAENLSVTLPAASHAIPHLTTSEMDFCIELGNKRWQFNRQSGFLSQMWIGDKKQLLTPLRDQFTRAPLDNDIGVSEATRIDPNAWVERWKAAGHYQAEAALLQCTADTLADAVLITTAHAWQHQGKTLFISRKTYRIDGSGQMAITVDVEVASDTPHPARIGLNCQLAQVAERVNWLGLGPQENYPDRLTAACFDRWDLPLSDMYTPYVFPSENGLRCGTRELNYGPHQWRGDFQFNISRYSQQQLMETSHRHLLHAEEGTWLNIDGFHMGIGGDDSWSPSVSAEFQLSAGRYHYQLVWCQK
Chain of C-X-C chemokine receptor type 6 (Homo sapiens) (O00574 whole entry, looked up): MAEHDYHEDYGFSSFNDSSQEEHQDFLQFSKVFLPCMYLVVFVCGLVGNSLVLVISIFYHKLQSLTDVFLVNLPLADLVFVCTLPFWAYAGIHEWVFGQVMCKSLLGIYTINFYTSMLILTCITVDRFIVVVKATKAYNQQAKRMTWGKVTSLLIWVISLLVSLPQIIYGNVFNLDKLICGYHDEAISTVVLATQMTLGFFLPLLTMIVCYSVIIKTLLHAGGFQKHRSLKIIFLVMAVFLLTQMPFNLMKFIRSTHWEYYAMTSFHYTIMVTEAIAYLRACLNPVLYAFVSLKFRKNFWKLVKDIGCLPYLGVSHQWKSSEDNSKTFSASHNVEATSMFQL

Structure (SMILES)	IC50 ([1]; dose range 1)	IC50 [1, 5] [µM]	IC50 ([2]; CCR6, dose range 1) [µM]	IC50 [2, 6] [µM]	IC50 ([2]; CCR6, run 2, dose range 1) [µM]	IC50 ([3]; CXCR6, dose range 1)	IC50 [3, 7] [µM]	inhibition [3] [%]	IC50 ([3]; CXCR6, run 2, dose range 1) [µM]	IC50 ([4]; dose range 1) [µM]	IC50 [4, 5] [µM]	IC50 ([4]; run 2, dose range 1) [µM]	IC50 ([4]; run 3, dose range 1) [µM]	IC50 ([3]; CXCR6, run 1, dose range 2) [µM]	IC50 ([3]; CXCR6, run 2, dose range 2) [µM]
COc1ccc(CCN2C(=O)C=CC2=O)cc1OC	> 80 µM (inactive)	> 80	4.86	6.32	7.78	9.39 µM	8.38	122	7.37	9.45	21.1	8.84	45.1	–	–
Cc1[nH][nH]c(=O)c1C(c1c(C)[nH][nH]c1=O)c1cn(Cc2ccc(Cl)c(Cl)c2)c2ccccc12	> 80 µM (inactive)	> 80	16.6	22.1	27.6	inactive	26.6	115	24.8	19.4	37	59.3	32.3	–	–
O=Cc1s/c(=N\S(=O)(=O)c2ccccc2)n(CCCCl)c1Cl	15.9 µM	15.9	2.79	3.11	3.43	4.95 µM	4.83	–	4.89	6.78	6.28	5.42	6.63	5.13	4.35
CCc1ccccc1OCC(=O)Nc1nc(-c2cccnc2)cs1	> 80 µM (inactive)	> 80	6.24	6.97	7.7	inactive	11	–	16.8	8.5	12.5	12	17	7.82	8.73
CN(CCO)c1cc(Sc2nc3ccccc3s2)c2nonc2c1[N+](=O)[O-]	25.6 µM	25.6	6	5.65	5.3	6.85 µM	7.46	–	6.34	10.3	8.8	7.74	8.35	8.56	8.1
CCn1c(=O)c([N+](=O)[O-])c(Cl)c2ccccc21	> 80 µM (inactive)	> 80	3.29	3.6	3.91	4.19 µM	7.64	–	17.8	31.9	35.8	21.3	54.3	4.43	4.13
COc1ccc([N+](=O)[O-])c(S(=O)(=O)c2ccc(Cl)cc2)n1	> 80 µM (inactive)	> 80	69.3	62.5	55.8	inactive	51.9	75.8	61.5	47.2	49.4	51.5	> 80	–	–
CC(=O)OCCCNc1cc(Sc2ccc(Cl)cc2)c2nonc2c1[N+](=O)[O-]	39.8 µM	39.8	1.97	2.12	2.27	3.22 µM	3.05	145	2.88	5.08	4.65	4.27	4.6	–	–
O=C1C(=C(c2ccccc2)N2CCOCC2)Cc2ccccc21	> 80 µM (inactive)	> 80	8.91	8.89	8.87	8.74 µM	9.51	–	10.3	15.3	13.2	11.8	12.5	9.93	9.08
